Measured values as given in patent US20080228408A1, “Method for Determining the State of an Ensemble of Cells and System for the Implementation of the Method” (priority 2005, published 2008).

System: neuronal cells
Assay: Toxicogenomic DNA chip test: gene expression level (RES) in cells exposed to the compound compared to unexposed cells
Assay type: cell-based
Details: Neuron
Description: One wishes to carry out the evaluation of the toxicity of a collection of (15) pesticides using a toxicogenomic analysis of the impact of these pesticides on neuronal cells, according to 4 modes of exposure of the cells to the compounds:
DNA chips built specifically to test the expression level of the 51 genes in cells under study, each chip being configured only for one gene in our case, each chip allowing to carry out for each gene a redundant number of measurements (16) in order to stabilize the levels of expression by analysing the results on average. The spots on the chips are numbered sp1 to sp16.
An automated device D5 allowing, on signal of execution of the C2 test, to take a E1 sample of the cell culture C (non exposed) and a E2 sample of the cell culture C exposed to the compound by the device described previously under the conditions specified with the configuration, then to use the D1 device to select a DNA chip corresponding to the gene specified at the time of the configuration, and to put the samples E1 and E2 thus obtained in the presence of the aforementioned DNA chip according to the methods described in the D1 device,
The result of a test, RES, transmitted by the Resource Unit to the PC, is a raw numerical value which indicates the expression level of the gene indicated in the configuration, for the cell exposed to the compound under the conditions of concentration and exposure duration specified in the configuration, compared to the expression level of the same gene in an unexposed cell of identical nature.
The following results are based on 3 evaluations, each using a different strategy, the target cells being neuronal cells, the mode of exposure being Expo11.
The results presented in table 2 show the values obtained in (052) for the evaluation of Paraquat according to the 4 modes Expo11, Expo12, Expo21, Expo22 carried out. The missing data are not relevant (ranging between 0.5 and 2 strictly).

C[n+]1ccc(-c2cc[n+](C)cc2)cc1 [Paraquat]
A2M gene expression level RES (exposed/unexposed cells) (C1 (IC50), 24 h (Expo11)): 0.43
AITCH gene expression level RES (exposed/unexposed cells) (C1 (IC50), 24 h (Expo11)): 0.13
ALB gene expression level RES (exposed/unexposed cells) (C1 (IC50), 24 h (Expo11)): 0.57
APAF1 gene expression level RES (exposed/unexposed cells) (C1 (IC50), 24 h (Expo11)): 0.47
AR gene expression level RES (exposed/unexposed cells) (C1 (IC50), 24 h (Expo11)): 0.39
ATF6 gene expression level RES (exposed/unexposed cells) (C1 (IC50), 24 h (Expo11)): 0.48
ATM gene expression level RES (exposed/unexposed cells) (C1 (IC50), 24 h (Expo11)): 0.42
BAX gene expression level RES (exposed/unexposed cells) (C1 (IC50), 24 h (Expo11)): 0.40
BCL2 gene expression level RES (exposed/unexposed cells) (C1 (IC50), 24 h (Expo11)): 0.44
BZRP gene expression level RES (exposed/unexposed cells) (C1 (IC50), 24 h (Expo11)): 0.53
C12ORF8 gene expression level RES (exposed/unexposed cells) (C1 (IC50), 24 h (Expo11)): 0.57
CALR gene expression level RES (exposed/unexposed cells) (C1 (IC50), 24 h (Expo11)): 0.52
CDC25C gene expression level RES (exposed/unexposed cells) (C1 (IC50), 24 h (Expo11)): 0.62
CDK4 gene expression level RES (exposed/unexposed cells) (C1 (IC50), 24 h (Expo11)): 0.59
CDKN1A gene expression level RES (exposed/unexposed cells) (C1 (IC50), 24 h (Expo11)): 0.46
CREB1 gene expression level RES (exposed/unexposed cells) (C1 (IC50), 24 h (Expo11)): 0.64
CTSB gene expression level RES (exposed/unexposed cells) (C1 (IC50), 24 h (Expo11)): 0.51
CTSD gene expression level RES (exposed/unexposed cells) (C1 (IC50), 24 h (Expo11)): 0.39
EGF gene expression level RES (exposed/unexposed cells) (C1 (IC50), 24 h (Expo11)): 0.47
EPHX1 gene expression level RES (exposed/unexposed cells) (C1 (IC50), 24 h (Expo11)): 0.45
FOS gene expression level RES (exposed/unexposed cells) (C1 (IC50), 24 h (Expo11)): 0.43
GADD45A gene expression level RES (exposed/unexposed cells) (C1 (IC50), 24 h (Expo11)): 0.54
GPX1 gene expression level RES (exposed/unexposed cells) (C1 (IC50), 24 h (Expo11)): 0.49
GSS gene expression level RES (exposed/unexposed cells) (C1 (IC50), 24 h (Expo11)): 0.54
GSTM3 gene expression level RES (exposed/unexposed cells) (C1 (IC50), 24 h (Expo11)): 0.71
HOXD1 gene expression level RES (exposed/unexposed cells) (C1 (IC50), 24 h (Expo11)): 0.44
HSPA5 gene expression level RES (exposed/unexposed cells) (C1 (IC50), 24 h (Expo11)): 0.55
HSPA9B gene expression level RES (exposed/unexposed cells) (C1 (IC50), 24 h (Expo11)): 0.58
JUN gene expression level RES (exposed/unexposed cells) (C1 (IC50), 24 h (Expo11)): 0.61
MDM2 gene expression level RES (exposed/unexposed cells) (C1 (IC50), 24 h (Expo11)): 0.37
NFKB1 gene expression level RES (exposed/unexposed cells) (C1 (IC50), 24 h (Expo11)): 0.54
NOS2A gene expression level RES (exposed/unexposed cells) (C1 (IC50), 24 h (Expo11)): 0.54
PARA gene expression level RES (exposed/unexposed cells) (C1 (IC50), 24 h (Expo11)): 0.38
PGR gene expression level RES (exposed/unexposed cells) (C1 (IC50), 24 h (Expo11)): 0.42
RAD50 gene expression level RES (exposed/unexposed cells) (C1 (IC50), 24 h (Expo11)): 0.63
RAD51 gene expression level RES (exposed/unexposed cells) (C1 (IC50), 24 h (Expo11)): 0.49
SOD1 gene expression level RES (exposed/unexposed cells) (C1 (IC50), 24 h (Expo11)): 0.76
TF1 gene expression level RES (exposed/unexposed cells) (C1 (IC50), 24 h (Expo11)): 0.68
THBS1 gene expression level RES (exposed/unexposed cells) (C1 (IC50), 24 h (Expo11)): 0.39
TP53 gene expression level RES (exposed/unexposed cells) (C1 (IC50), 24 h (Expo11)): 0.54
TUBA1 gene expression level RES (exposed/unexposed cells) (C1 (IC50), 24 h (Expo11)): 0.38
XBP1 gene expression level RES (exposed/unexposed cells) (C1 (IC50), 24 h (Expo11)): 0.50
A2M gene expression level RES (exposed/unexposed cells) (C1 (IC50), 48 h (Expo12)): 0.03
AITCH gene expression level RES (exposed/unexposed cells) (C1 (IC50), 48 h (Expo12)): 0.03
ALB gene expression level RES (exposed/unexposed cells) (C1 (IC50), 48 h (Expo12)): 0.01
APAF1 gene expression level RES (exposed/unexposed cells) (C1 (IC50), 48 h (Expo12)): 0.05
AR gene expression level RES (exposed/unexposed cells) (C1 (IC50), 48 h (Expo12)): 0.04
ATF6 gene expression level RES (exposed/unexposed cells) (C1 (IC50), 48 h (Expo12)): 0.05
ATM gene expression level RES (exposed/unexposed cells) (C1 (IC50), 48 h (Expo12)): 0.04
BAX gene expression level RES (exposed/unexposed cells) (C1 (IC50), 48 h (Expo12)): 0.05
BCL2 gene expression level RES (exposed/unexposed cells) (C1 (IC50), 48 h (Expo12)): 0.04
BZRP gene expression level RES (exposed/unexposed cells) (C1 (IC50), 48 h (Expo12)): 0.04
C12ORF8 gene expression level RES (exposed/unexposed cells) (C1 (IC50), 48 h (Expo12)): 0.05
CALR gene expression level RES (exposed/unexposed cells) (C1 (IC50), 48 h (Expo12)): 0.04
CDC25C gene expression level RES (exposed/unexposed cells) (C1 (IC50), 48 h (Expo12)): 0.04
CDK4 gene expression level RES (exposed/unexposed cells) (C1 (IC50), 48 h (Expo12)): 0.06
CDKN1A gene expression level RES (exposed/unexposed cells) (C1 (IC50), 48 h (Expo12)): 0.02
CREB1 gene expression level RES (exposed/unexposed cells) (C1 (IC50), 48 h (Expo12)): 0.03
CTSB gene expression level RES (exposed/unexposed cells) (C1 (IC50), 48 h (Expo12)): 0.05
CTSD gene expression level RES (exposed/unexposed cells) (C1 (IC50), 48 h (Expo12)): 0.03
EGF gene expression level RES (exposed/unexposed cells) (C1 (IC50), 48 h (Expo12)): 0.04
EPHX1 gene expression level RES (exposed/unexposed cells) (C1 (IC50), 48 h (Expo12)): 0.07
FOS gene expression level RES (exposed/unexposed cells) (C1 (IC50), 48 h (Expo12)): 0.04
GADD45A gene expression level RES (exposed/unexposed cells) (C1 (IC50), 48 h (Expo12)): 0.04
GPX1 gene expression level RES (exposed/unexposed cells) (C1 (IC50), 48 h (Expo12)): 0.02
GSS gene expression level RES (exposed/unexposed cells) (C1 (IC50), 48 h (Expo12)): 0.04
GSTM3 gene expression level RES (exposed/unexposed cells) (C1 (IC50), 48 h (Expo12)): 0.06
HOXD1 gene expression level RES (exposed/unexposed cells) (C1 (IC50), 48 h (Expo12)): 0.03
HSPA5 gene expression level RES (exposed/unexposed cells) (C1 (IC50), 48 h (Expo12)): 0.06
HSPA9B gene expression level RES (exposed/unexposed cells) (C1 (IC50), 48 h (Expo12)): 0.05
JUN gene expression level RES (exposed/unexposed cells) (C1 (IC50), 48 h (Expo12)): 0.05
MDM2 gene expression level RES (exposed/unexposed cells) (C1 (IC50), 48 h (Expo12)): 0.05
NFKB1 gene expression level RES (exposed/unexposed cells) (C1 (IC50), 48 h (Expo12)): 0.04
NOS2A gene expression level RES (exposed/unexposed cells) (C1 (IC50), 48 h (Expo12)): 0.04
PARA gene expression level RES (exposed/unexposed cells) (C1 (IC50), 48 h (Expo12)): 0.04
PGR gene expression level RES (exposed/unexposed cells) (C1 (IC50), 48 h (Expo12)): 0.04
RAD50 gene expression level RES (exposed/unexposed cells) (C1 (IC50), 48 h (Expo12)): 0.06
RAD51 gene expression level RES (exposed/unexposed cells) (C1 (IC50), 48 h (Expo12)): 0.05
SOD1 gene expression level RES (exposed/unexposed cells) (C1 (IC50), 48 h (Expo12)): 0.05
TF1 gene expression level RES (exposed/unexposed cells) (C1 (IC50), 48 h (Expo12)): 0.05
THBS1 gene expression level RES (exposed/unexposed cells) (C1 (IC50), 48 h (Expo12)): 0.05
TP53 gene expression level RES (exposed/unexposed cells) (C1 (IC50), 48 h (Expo12)): 0.05
TUBA1 gene expression level RES (exposed/unexposed cells) (C1 (IC50), 48 h (Expo12)): 0.04
XBP1 gene expression level RES (exposed/unexposed cells) (C1 (IC50), 48 h (Expo12)): 0.05
A2M gene expression level RES (exposed/unexposed cells) (C2 (IC50/10), 24 h (Expo21)): 0.14
AITCH gene expression level RES (exposed/unexposed cells) (C2 (IC50/10), 24 h (Expo21)): 0.08
